Experiment: gradient 5% acetonitrile 3 min, to 50% in 2 min, to 85% in 15 min, held 3 min, 100 µL/min
Details: column: Zorbax Extend-C18 2.1 x 50 mm; eluents: water / acetonitrile, 0.1% formic acid
Procedure, shortened: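 Values are retention times taken from adduct peaks that software picked and an analyst inspected. The pure standards were run as mixtures of ~100 molecules on HPLC linked to a quadrupole time-of-flight mass spectrometer, in positive and negative ionization mode. A Zorbax Extend-C18 column (2.1 × 50 mm, 1.8 μm) was used at 100 μL/min with water and acetonitrile, each including 0.1% formic acid.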

RP-LC retention time | Compound
1120 s | CCc1ccc(C(=O)Nc2cc(-c3ccn[nH]3)sc2C)cc1
885 s | Cc1c(S(=O)(=O)N2CCN(c3ccccn3)CC2)cc(-c2nc(-c3ccccc3)cs2)n1C
1260 s | CC(C)Oc1cc(O)c2c(=O)cc(-c3ccccc3)oc2c1
770 s | CCCN(CC(=O)N(Cc1ccco1)CC1CCCO1)C(=O)c1ccc2c(c1)OCO2 (centres undefined)
604 s | CC(=O)Nc1ccc(OCC(=O)NCc2ccc(N3CCOCC3)cc2)nc1
914 s | Cc1cccc(Cn2cc(C(=O)O)c(S(=O)(=O)N3CCSCC3)n2)c1
798 s | Cc1ccccc1CNC(=O)c1ncn2c1C(=O)N(C1CC1)C(C)(C(=O)NCc1ccc(F)cc1)C2 (centres undefined)
620 s | CCN1CCN(C(=O)CN2C(=O)C3CCCCN3c3ccc(S(=O)(=O)N(C)C)cc32)CC1 (centres undefined)
1170 s | CC(C)OC(=O)COc1cc(O)c2c(=O)cc(-c3ccccc3)oc2c1
1170 s | Nc1nc(-c2ccc(Cl)cc2)nn1C(=O)c1ccc(Cl)cc1
789 s | O=C(Nc1ccccc1)N1C[C@@H]2C(=O)N(CCc3ccccc3)C(=O)[C@@H]2C1
723 s | CCOc1ncccc1C(=O)Nc1c(C)nc2sc(C)c(C)n2c1=O
1050 s | CCOc1ccc(-c2nc(C3CC(=O)N(c4ccc(F)cc4)C3)no2)cc1OCC (centres undefined)
770 s | CCCNC(=O)N1CC(c2nc(-c3ccccc3)no2)C2(CCOCC2)C1 (centres undefined)
706 s | Fc1ccccc1-c1ccc(CNCc2cccs2)o1
838 s | O=C(c1ccc(Br)cc1)N1CC2C3CCC(O3)C2C1 (centres undefined)
550 s | O=C(NCCN1CCN(C(=O)c2cccs2)CC1)c1ccc2nsnc2c1
769 s | CC(C)CNC(=O)CCc1nc2ccccc2n(CC(=O)NCc2ccccc2)c1=O
932 s | Cc1cc(C)n(CC(=O)N2CCN(c3ccccc3)CC2)c1-c1nc(C2CC2)no1
1190 s | CCN(CC)S(=O)(=O)c1cc(-c2nnc(-c3ccc(C)cc3)o2)ccc1Cl
648 s | CCCNC(=O)CCNc1c(-c2ccc(F)cc2)nc2cnccn12
618 s | Cc1nnc(C2CCCCCN2C(=O)c2cnco2)o1 (centres undefined)
587 s | O=C(C1CCN(c2cnc(N3CCCC3)nc2)CC1)N1CCOCC1
1040 s | Cc1cc(-c2c(C)sc(C)c2S(=O)(=O)N2CC=C(c3ccccc3)CC2)n[nH]1
1130 s | C=CCn1nnc(NCc2ccc(-c3cc(Cl)ccc3Cl)o2)n1
759 s | CCOC(=O)C1CCN(C(=O)Cn2c(=O)oc3ccc(C(=O)N4CCCCC4)cc32)CC1
610 s | Cn1cccc(C(=O)N2CCC(CNC(=O)c3ccc(Cl)s3)CC2)c1=O
800 s | CCCNC(=O)CN1C(=O)C2CCCCN2c2ccc(S(=O)(=O)N3CCCC3)cc21 (centres undefined)

More lines, now with the values behind:

Compound | RP-LC retention time
CCn1cc(C(=O)NCc2ccccn2)c(S(=O)(=O)N2CCSCC2)n1 | 647 s
CCCNS(=O)(=O)c1ccc(Cl)c(-c2nnc(-c3ccc(OC)cc3)o2)c1 | 1010 s
Cc1cc(F)ccc1NC(=O)C1(C)Oc2cccnc2NC1=O (centres undefined) | 687 s
CCn1cc(-c2ccc(F)cc2)cc1C(=O)NC1CC1 | 917 s
O=C(C1CCN(c2cn[nH]c(=O)c2)C1)N1CCCC1 (centres undefined) | 571 s
Cn1nccc1-c1cccc(-c2noc(-c3ccc(F)cc3Cl)n2)c1 | 1190 s
O=S(=O)(NCc1nnnn1-c1ccc(Cl)cc1)c1ccc2c(c1)OCCO2 | 773 s
Cn1c(=O)c(-c2ccc(C(=O)NC3CCCCC3)cc2)nc2cccnc21 | 882 s
CCCCNC(=O)c1ccc2nc(CCc3ccc(NC(=O)CC)cc3)[nH]c2c1 | 570 s
CC(C)c1nc(CNC(=O)c2ccc(Cl)cc2)no1 | 785 s
CCc1nc(-c2ccc(S(=O)(=O)N3CCC(C(=O)NCc4cccs4)CC3)cc2)no1 | 917 s
Cc1nc(-c2ccncc2)nc2c1CCC(=O)N2Cc1ccco1 | 666 s
Cc1ccc(N2CCC(NC(=O)c3ccc(C#N)cc3)C2=O)cc1C (centres undefined) | 854 s
CCC1Oc2ccc(S(=O)(=O)N3CCC(C(=O)Nc4ccc5c(c4)OCO5)CC3)cc2NC1=O (centres undefined) | 809 s
CCC(C)NC(=O)CCc1c(-c2ccc(Br)cc2)nc2ccccn12 (centres undefined) | 657 s
O=C(NCCn1nnc2cc(C(=O)N3CCCCC3)ccc21)NC1CCCC1 | 661 s
COc1ccc(CSc2nccc3c2ccn3CC(=O)NCc2ccc(OC)c(OC)c2)cc1 | 681 s
CCc1ccc(NC(=O)COc2cc(C)nc(N3CCN(c4ccccc4)CC3)n2)cc1 | 885 s
CCOc1ccc(NC(=O)C2(C)CCCCC(=O)N2)cc1 (centres undefined) | 690 s
Cc1ccc2nc(C)c(NC(=O)CSCc3ccccc3)c(=O)n2c1 | 662 s
CCn1cnc(S(=O)(=O)N2CCCC(C(=O)NCCCc3ccccc3)C2)c1 (centres undefined) | 769 s

Compound | RP-LC retention time
COc1ccc(OC)c(CNC(=O)C2CCN(c3ccc4nncn4n3)CC2)c1 | 680 s
Nc1nc2ccc(Cl)cc2n2c(-c3ccccc3)nnc12 | 867 s
Cc1ccc(Cn2nc3c(S(=O)(=O)N4CCN(c5ccc(F)cc5)CC4)cccn3c2=O)cc1 | 1020 s
CCc1ccc(CN(CC(=O)N2CCNCC2)C(=O)c2sccc2C)cc1 | 671 s
CN(Cc1ccccc1)C(=O)c1cn2ccncc2n1 | 678 s
Cc1cc(C)n(Cc2ccc(C(=O)N3CCN(c4cc(=O)n(C(C)C)c(=O)n4C(C)C)CC3)o2)n1 | 772 s
O=c1cc(CN(Cc2ccccc2)Cc2ccccc2)nc2ccccn12 | 671 s
CCn1c(=O)c2cc(C(=O)Nc3cccc(C(F)(F)F)c3)nn2c2ccccc21 | 1080 s
CCC(C)NC(=O)C1CCC(=O)N(c2cc(OC)c(OC)c(OC)c2)C1c1ccc(OC)cc1 (centres undefined) | 693 s
O=C(CCc1nc2sc3c(c2c(=O)[nH]1)CCCCC3)N1CCN(C2CCCCC2)CC1 | 610 s
COc1ccc(C(=O)Nc2ccc3c(c2)Sc2ncccc2C(=O)N3C(C)C)cc1 | 860 s
CCn1cc(-c2ccc(Cl)cc2)cc1C(=O)N1CCOCC1 | 953 s
Cc1ccn2cc(-c3ccc(NC(=O)C4CCCCC4)cc3)nc2n1 | 657 s
O=C(Cn1cccc(-c2nc(-c3ccc(F)cc3)no2)c1=O)N1CCN(c2ccc(F)cc2)CC1 | 898 s
CCCCNc1ncc(C(=O)O)c(-c2ccncc2)n1 | 612 s
Cc1ccc(-c2ccc(-n3nc(C)c(S(=O)(=O)N4CCCC(C)C4)c3C)nn2)cc1 (centres undefined) | 1230 s
Cn1nc(-c2nnc(-c3ccc(F)cc3)o2)c2c1CCN(S(=O)(=O)c1cc(F)cc(F)c1)C2 | 922 s
O=C(NCCc1cccs1)C1CCCN(C(=O)c2cc(-c3ccccn3)n[nH]2)C1 (centres undefined) | 645 s
CN(C)c1cc(-n2cnc(C(=O)NCc3ccccc3Cl)c2)ncn1 | 813 s
CCCCn1c(=O)c2ccccc2n(Cc2nc(-c3cc(OC)c(OC)c(OC)c3)no2)c1=O | 1080 s
CCOC(=O)CC(NC(=O)NCc1ccnc(N2CCCCC2)c1)c1ccccc1 (centres undefined) | 645 s

Compound | RP-LC retention time
N#Cc1ccc(-c2cnc3[nH]cc(NC(=O)c4cccnc4)c3c2)cc1 | 738 s
COc1ccc2nc(-c3ccc(F)c(NC(=O)Nc4ccccc4C)c3)cn2n1 | 789 s
CCOC(=O)N1CCN(c2cc(C(=O)O)c3cc(NC(=O)CC)ccc3n2)CC1 | 553 s
COC(=O)c1ccc(-c2nc3cnccn3c2Nc2ccc(C)cc2C)cc1 | 1010 s
Cc1ccc(NC(=O)Cn2c(=O)n(-c3ccccc3)c(=O)c3c2cc(C)n3C)cc1Cl | 927 s
Cc1ccc(NC(=O)Cn2nc(N(C)C)c3ccccc3c2=O)c(Br)c1 | 1010 s
CC(C)N1C(=O)c2cccnc2Sc2cc(NC(=O)c3ccsc3)ccc21 | 832 s
CCc1nc2cc(N3CCC(C(=O)Nc4cc(C)ccc4OC)CC3)cnc2nc1CC | 992 s
COCCCNC(=O)N1CCCC1c1nc(-c2ccccc2C)no1 (centres undefined) | 785 s
CC(C)Cc1cc(-c2nn3c(-c4ccccc4F)nnc3s2)n[nH]1 | 915 s
O=C(c1ccccn1)N1CCCC(c2n[nH]c(C3CC3)n2)C1 (centres undefined) | 542 s
Cc1cccc(OCc2nc(CCN(C)C(=O)Nc3ccccc3C)no2)c1 | 919 s
COC(=O)c1ccc(NC(=O)Cn2c3cc(Cl)ccc3c(=O)n2C(C)(C)C)cc1 | 1300 s
COc1ccc(NC(=O)c2c(C)oc3nc(C)nc(N4CCOCC4)c23)cc1 | 706 s
COCCCNC(=O)C1CCC(=O)N(c2ccc(OC)cc2)C1c1ccc(F)cc1 (centres undefined) | 609 s
CCn1nccc1-c1cccc(-c2noc(C3CC(=O)N(c4cccc(Cl)c4)C3)n2)c1 (centres undefined) | 1090 s
COc1ccc(NC(=O)N2CCC3(C2)C(=O)N(C)c2ccc(OC)cc23)cc1 (centres undefined) | 732 s
CNc1ncnc2c1cnn2-c1ccc(F)cc1 | 657 s
Cn1cc(C2c3nccn3CCCN2S(=O)(=O)c2cccc(C(F)(F)F)c2)cn1 (centres undefined) | 656 s

— the METLIN SMRT retention time set (Domingo-Almenara et al. 2019)
